The text below walks through data of patent publication US20220104492A1, “PYRIDAZINIUM COMPOUNDS FOR USE IN A METHOD OF CONTROLLING UNWANTED PLANT GROWTH” (SYNGENTA CROP PROTECTION AG, priority 2019, published 2022).

What all share (experiment): Post-emergence efficacy (glasshouse, spray application)
Type in all cases: in vivo

The subject of assay [1] is Euphorbia heterophylla (EPHHL). The conditions noted are these: 312 h, Application rate 500 g/Ha, evaluated after 13 days, 100=total damage to plant, 0=no damage to plant, read-out: Control of weed species after post-emergence application, EPHHL.
In assay [2] the test system is Eleusine indica (ELEIN). The following applies: 312 h, Application rate 500 g/Ha, evaluated after 13 days, 100=total damage to plant, 0=no damage to plant, read-out: Control of weed species after post-emergence application, ELEIN.
For assay [3], the system named is Amaranthus palmeri (AMAPA). The following applies: 312 h, Application rate 500 g/Ha, evaluated after 13 days, 100=total damage to plant, 0=no damage to plant, read-out: Control of weed species after post-emergence application, AMAPA.
Assay [4] concerns Lolium perenne (LOLPE). The following applies: 312 h, Application rate 500 g/Ha, evaluated after 13 days, 100=total damage to plant, 0=no damage to plant, read-out: Control of weed species after post-emergence application, LOLPE.
The test system of assay [5] is Chenopodium album (CHEAL). The conditions noted are these: 312 h, Application rate 500 g/Ha, evaluated after 13 days, 100=total damage to plant, 0=no damage to plant, read-out: Control of weed species after post-emergence application, CHEAL.
For assay [6], the system named is Ipomoea hederacea (IPOHE). The conditions noted are these: 312 h, Application rate 500 g/Ha, evaluated after 13 days, 100=total damage to plant, 0=no damage to plant, read-out: Control of weed species after post-emergence application, IPOHE.
The test system of assay [7] is Echinochloa crus-galli (ECHCG). The following applies: 312 h, Application rate 500 g/Ha, evaluated after 13 days, 100=total damage to plant, 0=no damage to plant, read-out: Control of weed species after post-emergence application, ECHCG.
Assay [8] relates to Setaria faberi (SETFA). The conditions noted are these: 312 h, Application rate 500 g/Ha, evaluated after 13 days, 100=total damage to plant, 0=no damage to plant, read-out: Control of weed species after post-emergence application, SETFA.
Assay [9] relates to Digitaria sanguinalis (DIGSA). The conditions noted are these: 312 h, Application rate 500 g/Ha, evaluated after 13 days, 100=total damage to plant, 0=no damage to plant, read-out: Control of weed species after post-emergence application, DIGSA.

Structures are written as SMILES.

For the molecule `CN(CC[n+]1ccc(-c2ncccn2)cn1)S(=O)(=O)CC(=O)O` [Compound A30, 2-[methyl-[2-(4-pyrimidin-2-ylpyridazin-1-ium-1-yl)ethyl]-sulfamoyl]acetic acid chloride], the pest or weed control at 500 g/ha in assay [1] was 90%; in assay [2] it was 40%; in assay [3], 100%; in [4] it was 50%; in assay [5] it was 80%; in [6], 20%. In addition, the pest or weed control at 500 g/ha came out at 100% in assay [7], 60% in assay [8] and 70% in [9].

Turning to `CC(=O)N(CC[n+]1ccc(-c2ncccn2)cn1)CC(=O)O` [Compound A31], the pest or weed control at 500 g/ha in assay [1] came to 90%; in assay [2], 60%; in assay [3], 100%; in assay [4], 20%; in assay [5] it was 90%; in assay [6] it was 50%. The values for the pest or weed control at 500 g/ha in [7], in [8] and in assay [9] were 60%, 60% and 80%, respectively.

Take `CC(C)(NC(=O)CC[n+]1ccc(-c2ncccn2)cn1)C(=O)O` [Compound A32]: the pest or weed control at 500 g/ha amounted to 80% in [1]; 80% in [2]; 100% in assay [3]; 60% in assay [4]; 100% in assay [5]; 30% in assay [6]. Moreover, the results for the pest or weed control at 500 g/ha in [7], in assay [8] and in assay [9] were 70%, 80% and 80%, respectively.

On to `O=C(O)CSC[n+]1ccc(-c2ncccn2)cn1` [Compound A33, 2-[(4-pyrimidin-2-ylpyridazin-1-ium-1-yl)methylsulfanyl]acetic acid 2,2,2-trifluoroacetate], for which the pest or weed control at 500 g/ha in assay [1] is 100%; in assay [2], 100%; in assay [3] it was 100%; in assay [4] it was 70%; in [5], 100%; in assay [6], 40%. Further, the figures for the pest or weed control at 500 g/ha in assay [7], in [8] and in assay [9] were 100%, 90% and 100%, respectively.

As to `CN(CC(=O)O)C(=O)C[n+]1ccc(-c2ccccn2)cn1` [Compound A34], the pest or weed control at 500 g/ha in assay [1] turned out to be 50%; in assay [2], 20%; in assay [3], 90%; in [4], 10%; in assay [5], 0%; in [6], 40%. Further, the results for the pest or weed control at 500 g/ha in assay [7], in [8] and in [9] were 30%, 40% and 20%, respectively.

`O=C(O)CNC(=O)C[n+]1ccc(-c2cnccn2)cn1` [Compound A35]: the pest or weed control at 500 g/ha in [1] stood at 40%; in [2] it was 60%; in assay [3] it was 70%; in [4], 0%; in [5], 40%; in assay [6], 20%. For the same molecule, the pest or weed control at 500 g/ha in [7] came out at 50%; in [8], 60%; in assay [9], 100%.

Consider `CC(C)(CC(=O)O)NC(=O)CC[n+]1ccc(-c2ncccn2)cn1` [Compound A36], for which the pest or weed control at 500 g/ha in assay [1] was 90%; in assay [2] it was 100%; in assay [3], 100%; in assay [4] it was 90%; in assay [5] it was 100%; in assay [6], 20%. The figures for the pest or weed control at 500 g/ha in [7], in assay [8] and in assay [9] were 40%, 100% and 100%, respectively.

As to `CC(C)(NC(=O)C[n+]1ccc(-c2ncccn2)cn1)C(=O)O` [Compound A37], the pest or weed control at 500 g/ha in [1] is 80%; in assay [2], 70%; in [3] it was 100%; in [4] it was 70%; in [5], 50%; in assay [6], 40%. The pest or weed control at 500 g/ha in assay [7] was found to be 40%; in assay [8], 80%; in assay [9], 70%.

`O=C(CC[n+]1ccc(-c2ncccn2)cn1)NC1(C(=O)O)CC1` [Compound A38]: the pest or weed control at 500 g/ha was determined as 80% in [1]; 100% in [2]; 100% in [3]; 90% in [4]; 100% in assay [5]; 10% in [6]. Besides, the pest or weed control at 500 g/ha was 50% in [7], 100% in assay [8] and 90% in assay [9].

With `O=C(O)COC[n+]1ccc(-c2ncccn2)cn1` [Compound A39], the pest or weed control at 500 g/ha turned out to be 90% in [1]; 60% in assay [2]; 100% in assay [3]; 70% in [4]; 80% in assay [5]; 80% in assay [6]. Further, the values for the pest or weed control at 500 g/ha in assay [7], in assay [8] and in [9] were 80%, 70% and 100%, respectively.
